In paper PMC10331583, “Control of fibrosis with enhanced safety via asymmetric inhibition of prolyl‐tRNA synthetase 1” (EMBO Molecular Medicine, 2023):
“And” between values parts separate entries of the source, which are not always exact repeats. Identical values can stand only once. Like-named read-outs stand apart in the source and are kept apart here.

Assays:
[1] = system: TNT Quick Coupled Transcription/Translation System (luciferase synthesis); format: biochemical
[2] = system: WI‐26 VA4 cells; assay: Puromycin incorporation assay; format: cell-based, human; conditions: for activity at 0.1 µM: WI26VA4, 100 nM; for activity at 0.3 µM: WI26VA4, 300 nM; for activity at 1 µM: WI26VA4, 1000 nM; for activity at 3 µM: WI26VA4, 3000 nM; for activity at 5 µM: WI26VA4, 5000 nM; for activity at 10 µM: WI26VA4, 10000 nM
Method: After being rinsed with cold PBS twice, the cells were collected and resuspended in 200 μl of the carbonate bicarbonate buffer (Sigma Aldrich, C3041‐50CAP) with protease inhibitor. The cell lysates were obtained by sonication and centrifugation at 20,000 g for 15 min at 4°C. After protein quantification using a Pierce™ BCA Protein Assay Kit (Thermo Fisher Scientific, 23225), 400 ng of the proteins was coated to ELISA plates for 18 h at 4°C. […] The plates were rinsed with the washing buffer for three times after each antibody incubation step. […] The amount of puromycin incorporated in proteins was determined by measuring the absorbance at 450 nm (reference wavelength at 620 nm). Experimental values marked in red with strikethrough text in the Figure Source Data file were excluded from the analysis. These values were determined by considering the values of biological and technical replicates under the same condition, as well as the values at the former and later chemical concentrations.

[3] = Homo sapiens, read-out: Puromycin, % of control, average
[4] = Homo sapiens, read-out: Puromycin, % of control, single replicate

Cc1c(Cl)ccc2c1ncn2CC(=O)C[C@H]1NCCC[C@@H]1O [DWN11748]
TNT-luciferase % of control ([1]; 20 nM, Experiment #1, replicates, 0.02 µM): 124.31 % of control and 118.51 % of control and 107.73 % of control
TNT-luciferase % of control ([1]; 20 nM, Experiment #2, replicates, 0.02 µM): 122.22 % of control and 112.59 % of control and 102.96 % of control
TNT-luciferase % of control, average ([1]; 20 nM): 114.72 % of control
TNT-luciferase % of control ([1]; 60 nM, Experiment #1, replicates, 0.06 µM): 118.51 % of control and 116.02 % of control and 106.08 % of control
TNT-luciferase % of control ([1]; 60 nM, Experiment #2, replicates, 0.06 µM): 117.78 % of control and 113.33 % of control and 103.70 % of control
TNT-luciferase % of control, average ([1]; 60 nM): 112.57 % of control
TNT-luciferase % of control ([1]; 200 nM, Experiment #1, replicates, 0.2 µM): 119.34 % of control and 112.71 % of control and 116.02 % of control
TNT-luciferase % of control ([1]; 200 nM, Experiment #2, replicates, 0.2 µM): 136.30 % of control and 122.22 % of control and 131.11 % of control
TNT-luciferase % of control, average ([1]; 200 nM): 122.95 % of control
TNT-luciferase % of control ([1]; 600 nM, Experiment #1, replicates, 0.6 µM): 122.65 % of control and 113.54 % of control and 107.73 % of control
TNT-luciferase % of control ([1]; 600 nM, Experiment #2, replicates, 0.6 µM): 109.63 % of control and 101.48 % of control and 108.89 % of control
TNT-luciferase % of control, average ([1]; 600 nM): 110.65 % of control
TNT-luciferase % of control ([1]; 2000 nM, Experiment #1, replicates, 2 µM): 77.24 % of control and 79.06 % of control and 67.79 % of control
TNT-luciferase % of control ([1]; 2000 nM, Experiment #2, replicates, 2 µM): 73.56 % of control and 76.30 % of control and 68.37 % of control
TNT-luciferase % of control, average ([1]; 2000 nM): 73.72 % of control
TNT-luciferase % of control ([1]; 6000 nM, Experiment #1, replicates, 6 µM): 17.73 % of control and 16.82 % of control and 16.99 % of control
TNT-luciferase % of control ([1]; 6000 nM, Experiment #2, replicates, 6 µM): 12.15 % of control and 12.07 % of control and 13.19 % of control
TNT-luciferase % of control, average ([1]; 6000 nM): 14.83 % of control
TNT-luciferase % of control ([1]; 20000 nM, Experiment #1, replicates, 20 µM): 0.54 % of control and 0.58 % of control and 0.61 % of control
TNT-luciferase % of control ([1]; 20000 nM, Experiment #2, replicates, 20 µM): 0.11 % of control and 0.0948 % of control and 0.12 % of control
TNT-luciferase % of control, average ([1]; 20000 nM): 0.35 % of control
TNT-luciferase % of control ([1]; 60000 nM, Experiment #1, replicates, 60 µM): 0.02 % of control (2×) and 0.0164 % of control
TNT-luciferase % of control ([1]; 60000 nM, Experiment #2, replicates, 60 µM): 0.000642 % of control and -0.00528 % of control and -0.00499 % of control
TNT-luciferase % of control, average ([1]; 60000 nM): 0.00775 % of control
TNT-luciferase % of control ([1]; 200000 nM, Experiment #1, replicates, 200 µM): 0.00754 % of control and 0.000331 % of control and -0.000994 % of control
TNT-luciferase % of control ([1]; 200000 nM, Experiment #2, replicates, 200 µM): 0.0019 % of control and 0.00487 % of control and -0.000321 % of control
TNT-luciferase % of control, average ([1]; 200000 nM): 0.00222 % of control
TNT-luciferase LogIC50 (best-fit value) ([1]; log(inhibitor) vs. response, variable slope (four parameters), concentration in nM): 3.407
IC50 ([1]; log(inhibitor) vs. response, variable slope (four parameters), unit from head concentration (nM), read-out: TNT-luciferase IC50 (best-fit value)): 2550 nM
Puromycin, % of control, single replicate ([2]; 300 nM, 0.3 µM): 100.32 % of control and 98.22 % of control and 104.21 % of control and 104.56 % of control and 103.89 % of control and 104.45 % of control and 100.10 % of control and 97.92 % of control
Puromycin, % of control, single replicate ([2]; 1000 nM, 1 µM): 97.71 % of control and 98.10 % of control and 102.31 % of control and 107.16 % of control and 101.57 % of control and 105.82 % of control and 108.83 % of control
Puromycin, % of control, single replicate ([2]; 3000 nM, 3 µM): 32.63 % of control
Puromycin, % of control, single replicate ([2]; 5000 nM, 5 µM): 22.79 % of control and 22.67 % of control and 25.49 % of control and 25.64 % of control and 24.99 % of control and 25.25 % of control and 25.95 % of control and 25.31 % of control
Puromycin, % of control, single replicate ([2]; 10000 nM, 10 µM): 12.21 % of control and 11.47 % of control and 15.58 % of control and 13.74 % of control and 13.61 % of control and 15.33 % of control and 15.25 % of control and 13.38 % of control
Puromycin, % of control, single replicate ([2]; 100000 nM, 100 µM): 0.86 % of control and 1.09 % of control and 0.96 % of control and 0.69 % of control and 0.0546 % of control and 1.21 % of control and 1.52 % of control and 1.41 % of control and 1.00 % of control
activity at 0.1 µM [2, 3]: 106%
activity at 0.1 µM [2, 4]: 113%
activity at 0.3 µM [2, 3]: 102%
activity at 0.3 µM [2, 4]: 102%
activity at 1 µM [2, 3]: 103%
activity at 1 µM [2, 4]: 101%
activity at 3 µM [2, 3]: 31.2%
activity at 3 µM [2, 4]: 29.7%
activity at 5 µM [2, 3]: 24.6%
activity at 5 µM [2, 4]: 23.1%
activity at 10 µM [2, 3]: 13.7%
activity at 10 µM [2, 4]: 12.4%
activity at 30 µM ([2]; Homo sapiens, WI26VA4, 30000 nM, read-out: Puromycin, % of control, average): 1.05%
activity at 100 µM ([2]; Homo sapiens, WI26VA4, 100000 nM, read-out: Puromycin, % of control, average): 0.98%
IC50 ([2]; Homo sapiens, WI26VA4, log(inhibitor) vs. response, variable slope (four parameters), read-out: Puromycin, IC50 (best-fit value)): 2680 nM
Puromycin, HillSlope (best-fit value) ([2]; log(inhibitor) vs. response, variable slope (four parameters)): -2.365
